The assay deals with T1, VirB (VirB-His6) (Shigella flexneri, UniProt P0A247).
T1 construct: VirB with His6 tag, purified by Monserate Biotechnology Group by an earlier protocol; ParB superfamily protein encoded on the large virulence plasmid pINV; homodimer on DNA
Description: isothermal titration calorimetry. The class given is binding. Particulars: 25 °C, pH 7.6, 25 mM HEPES, 100 mM NaCl, one set of sites.

Consider 2 compounds from publication PMC10653881, “VirB, a key transcriptional regulator of Shigella virulence, requires a CTP ligand for its regulatory activities” (mBio, 2023).

T1 sequence (P0A247 whole entry): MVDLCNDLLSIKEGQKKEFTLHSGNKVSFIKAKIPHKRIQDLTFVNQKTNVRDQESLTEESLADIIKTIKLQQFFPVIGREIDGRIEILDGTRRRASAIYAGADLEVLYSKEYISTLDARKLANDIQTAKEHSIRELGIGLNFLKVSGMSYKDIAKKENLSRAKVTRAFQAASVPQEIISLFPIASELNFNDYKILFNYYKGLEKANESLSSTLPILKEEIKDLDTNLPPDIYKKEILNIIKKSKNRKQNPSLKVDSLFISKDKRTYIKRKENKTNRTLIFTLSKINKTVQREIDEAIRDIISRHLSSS

With `Nc1ccn([C@@H]2O[C@H](COP(=O)(O)OP(=O)(O)OP(O)(O)=S)[C@@H](O)[C@H]2O)c(=O)n1` [CTPγS], binding (5 mM MgCl2, 90 µM VirB-His6 (not fully saturated after 13 injections), no DNA) was characterised by a dissociation constant (Kd) of 14.3 ± 0.5 µM.
Where the note is “5 mM MgCl2, 45 µM VirB-His6, no DNA”, `Nc1ccn([C@@H]2O[C@H](COP(=O)(O)OP(=O)(O)OP(=O)(O)O)[C@@H](O)[C@H]2O)c(=O)n1` [CTP] came in with an equilibrium dissociation constant (Kd) of 9.3 ± 0.4 µM.
